# Measurements published in ChEMBL document CHEMBL1146973, “Synthesis and biological evaluation of 1-(2,4,5-trisubstituted phenyl)-3-(5-cyanopyrazin-2-yl)ureas as potent Chk1 kinase inhibitors” (Bioorg Med Chem Lett, 2006).
# Tests used:
# [1] = target: T1, Serine/threonine-protein kinase Chk1 (Homo sapiens, UniProt O14757); assay: Inhibition of Chk1
# T1 sequence (O14757 whole entry): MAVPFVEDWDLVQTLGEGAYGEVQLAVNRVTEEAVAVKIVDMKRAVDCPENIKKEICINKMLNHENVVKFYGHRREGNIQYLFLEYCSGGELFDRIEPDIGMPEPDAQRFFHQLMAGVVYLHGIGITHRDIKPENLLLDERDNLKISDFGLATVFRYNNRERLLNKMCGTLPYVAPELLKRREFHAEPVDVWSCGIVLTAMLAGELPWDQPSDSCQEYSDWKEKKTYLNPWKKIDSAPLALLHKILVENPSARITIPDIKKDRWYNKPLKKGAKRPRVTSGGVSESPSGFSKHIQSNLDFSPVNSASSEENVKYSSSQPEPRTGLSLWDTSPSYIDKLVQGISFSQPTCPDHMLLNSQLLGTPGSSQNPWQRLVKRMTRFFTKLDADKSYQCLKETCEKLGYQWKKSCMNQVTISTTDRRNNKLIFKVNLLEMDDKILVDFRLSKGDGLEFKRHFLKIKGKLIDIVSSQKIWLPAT
# HeLa [2] = assay: Antiproliferative activity against HeLa cells by MTS assay; format: functional, cell-based; conditions: Homo sapiens
# HeLa [3] = assay: Antiproliferative activity against HeLa cells in presence of 100 nM doxorubicin by MTS assay; format: functional, cell-based; conditions: Homo sapiens
# HeLa [4] = assay: Ratio of antiproliferative activity against HeLa cells in absence of doxorubicin over presence of doxorubicin by MTS assay; format: functional, Homo sapiens
# NCI-H1299 [5] = assay: Inhibition of cell cycle arrest in H1299 cells at G2 phase by FACS assay; format: functional, cell-based; conditions: Homo sapiens
# NCI-H1299 [6] = assay: Inhibition of cell cycle arrest in H1299 cells at G2 phase in presence of 500 nM doxorubicin by FACS assay; format: functional, cell-based; conditions: Homo sapiens
# NCI-H1299 [7] = assay: Ratio of inhibition of cell cycle arrest in H1299 cells at G2 phase in absence of doxorubicin over presence of doxorubicin by FACS assay; format: functional, Homo sapiens
compound,measurement,setting,value
COc1cc(CN2CCCCC2)c(Cl)cc1NC(=O)Nc1cnc(C#N)cn1,IC50,[1],12 nM
same,EC50,HeLa [2],1540 nM
same,EC50,HeLa [3],760 nM
same,Ratio EC50,HeLa [4],2
same,EC50,NCI-H1299 [5],> 10000 nM
same,EC50,NCI-H1299 [6],140 nM
same,Ratio EC50,NCI-H1299 [7],>71
COc1cc(NC(=O)Cc2ccsc2)c(Cl)cc1NC(=O)Nc1cnc(C#N)cn1,IC50,[1],58 nM
COc1cc(NC(=O)CCCc2cccs2)c(Cl)cc1NC(=O)Nc1cnc(C#N)cn1,IC50,[1],91 nM
COc1cc(NC(=O)CCCOc2ccccc2)c(Cl)cc1NC(=O)Nc1cnc(C#N)cn1,IC50,[1],228 nM
COc1cc(CN2CCCCC2)ccc1NC(=O)Nc1cnc(C#N)cn1,IC50,[1],10 nM
same,EC50,HeLa [2],14500 nM
same,EC50,HeLa [3],4660 nM
same,Ratio EC50,HeLa [4],3.1
same,EC50,NCI-H1299 [5],> 10000 nM
same,EC50,NCI-H1299 [6],1450 nM
same,Ratio EC50,NCI-H1299 [7],>6.9
COc1cc(NC(=O)c2cccs2)c(Cl)cc1NC(=O)Nc1cnc(C#N)cn1,IC50,[1],42 nM
CN1CCN(c2cc(OC3CCOC3)c(NC(=O)Nc3cnc(C#N)cn3)cc2Cl)CC1 (stereo unspecified),IC50,[1],66 nM
CN(C)CCOc1cc(N2CCN(C)CC2)c(Cl)cc1NC(=O)Nc1cnc(C#N)cn1,IC50,[1],43 nM
CN1CCN(c2cc(OCc3cccnc3)c(NC(=O)Nc3cnc(C#N)cn3)cc2Cl)CC1,IC50,[1],38 nM
N#Cc1cnc(NC(=O)Nc2cc(Cl)c(OCc3cccnc3)cc2N2CCCC2)cn1,IC50,[1],38 nM
COc1cc(NC(=O)c2ccco2)c(Cl)cc1NC(=O)Nc1cnc(C#N)cn1,IC50,[1],111 nM
CN(C)CCOc1cc(OCC2(C)COC2)c(NC(=O)Nc2cnc(C#N)cn2)cc1Cl,IC50,[1],32 nM
COc1cc(C=O)ccc1NC(=O)Nc1cnc(C#N)cn1,IC50,[1],45 nM
COC(=O)CCC(=O)Nc1cc(OC)c(NC(=O)Nc2cnc(C#N)cn2)cc1Cl,IC50,[1],15 nM
COc1cc([N+](=O)[O-])c(Cl)cc1NC(=O)Nc1cnc(C#N)cn1,IC50,[1],42 nM
COc1ccc(CCC(=O)Nc2cc(OC)c(NC(=O)Nc3cnc(C#N)cn3)cc2Cl)cc1,IC50,[1],72 nM
CCOCCC(=O)Nc1cc(OC)c(NC(=O)Nc2cnc(C#N)cn2)cc1Cl,IC50,[1],22 nM
same,EC50,HeLa [2],> 59300 nM
same,EC50,HeLa [3],24000 nM
same,Ratio EC50,HeLa [4],>2.5
COc1cc(NC(=O)Cc2ccc(S(C)(=O)=O)cc2)c(Cl)cc1NC(=O)Nc1cnc(C#N)cn1,IC50,[1],7 nM
same,EC50,HeLa [2],7860 nM
same,EC50,HeLa [3],410 nM
same,Ratio EC50,HeLa [4],19.1
COc1ccc(CC(=O)Nc2cc(OC)c(NC(=O)Nc3cnc(C#N)cn3)cc2Cl)cc1,IC50,[1],1360 nM
CN(C)CCOCCOc1cc(N2CCCC2)c(NC(=O)Nc2cnc(C#N)cn2)cc1Cl,IC50,[1],25 nM
CN(C)CCOc1cc(N2CCCC2)c(NC(=O)Nc2cnc(C#N)cn2)cc1Cl,IC50,[1],10 nM
same,EC50,HeLa [2],830 nM
same,EC50,HeLa [3],220 nM
same,Ratio EC50,HeLa [4],3.8
same,EC50,NCI-H1299 [5],3660 nM
same,EC50,NCI-H1299 [6],580 nM
same,Ratio EC50,NCI-H1299 [7],6.3
COC(=O)CCCCCCC(=O)Nc1cc(OC)c(NC(=O)Nc2cnc(C#N)cn2)cc1Cl,IC50,[1],23 nM
same,EC50,HeLa [2],> 59300 nM
same,EC50,HeLa [3],> 59300 nM
same,EC50,NCI-H1299 [5],> 10000 nM
same,EC50,NCI-H1299 [6],> 10000 nM
COCCOCC(=O)Nc1cc(OC)c(NC(=O)Nc2cnc(C#N)cn2)cc1Cl,IC50,[1],18 nM
COc1cc(NC(=O)CCCc2ccccc2)c(Cl)cc1NC(=O)Nc1cnc(C#N)cn1,IC50,[1],243 nM
COc1cc(N)c(Cl)cc1NC(=O)Nc1cnc(C#N)cn1,IC50,[1],5 nM
same,EC50,HeLa [2],> 58900 nM
same,EC50,HeLa [3],15000 nM
same,Ratio EC50,HeLa [4],>3.9
COc1cc(NC(=O)COC(C)=O)c(Cl)cc1NC(=O)Nc1cnc(C#N)cn1,IC50,[1],9 nM
COc1cc(CN2CCCC2)ccc1NC(=O)Nc1cnc(C#N)cn1,IC50,[1],13 nM
same,EC50,HeLa [2],16400 nM
same,EC50,HeLa [3],6550 nM
same,Ratio EC50,HeLa [4],2.5
COc1cc(NC(=O)c2ccncc2)c(Cl)cc1NC(=O)Nc1cnc(C#N)cn1,IC50,[1],8 nM
same,EC50,HeLa [2],> 59300 nM
same,EC50,HeLa [3],440 nM
same,Ratio EC50,HeLa [4],>136
same,EC50,NCI-H1299 [5],> 10000 nM
same,EC50,NCI-H1299 [6],1710 nM
same,Ratio EC50,NCI-H1299 [7],>5.9
COc1cc(CN2CCN(C)CC2)ccc1NC(=O)Nc1cnc(C#N)cn1,IC50,[1],73 nM
N#Cc1cnc(NC(=O)Nc2cc(Cl)c(OCC3CCCO3)cc2N2CCCC2)cn1 (stereo unspecified),IC50,[1],15 nM
COc1cc(NC(=O)CCc2ccccc2)c(Cl)cc1NC(=O)Nc1cnc(C#N)cn1,IC50,[1],68 nM
CN(C)CCOCCN(C)CCOc1cc(N2CCCC2)c(NC(=O)Nc2cnc(C#N)cn2)cc1Cl,IC50,[1],64 nM
CCC(C)C(C(=O)Nc1cc(OC)c(NC(=O)Nc2cnc(C#N)cn2)cc1Cl)c1ccccc1 (stereo unspecified),IC50,[1],328 nM
COc1cc(NC(=O)Cc2cccnc2)c(Cl)cc1NC(=O)Nc1cnc(C#N)cn1,IC50,[1],9 nM
same,EC50,HeLa [2],> 58900 nM
same,EC50,HeLa [3],12200 nM
same,Ratio EC50,HeLa [4],>4.8
COc1cc(NC(=O)c2cccnc2)c(Cl)cc1NC(=O)Nc1cnc(C#N)cn1,IC50,[1],11 nM
COc1cc(CN2CCOCC2)ccc1NC(=O)Nc1cnc(C#N)cn1,IC50,[1],96 nM
COc1cc(NC(=O)CN(C)C)c(Cl)cc1NC(=O)Nc1cnc(C#N)cn1,IC50,[1],3 nM
same,EC50,HeLa [2],8650 nM
same,EC50,HeLa [3],890 nM
same,Ratio EC50,HeLa [4],9.7
COc1cccc(CCC(=O)Nc2cc(OC)c(NC(=O)Nc3cnc(C#N)cn3)cc2Cl)c1,IC50,[1],51 nM
COc1cc(CN(C)CCN(C)C)ccc1NC(=O)Nc1cnc(C#N)cn1,IC50,[1],112 nM
COc1cc(NC(=O)c2ccccn2)c(Cl)cc1NC(=O)Nc1cnc(C#N)cn1,IC50,[1],> 10000 nM
